From ChEMBL document CHEMBL5120854, “Discovery of Natural Ursane-type SENP1 Inhibitors and the Platinum Resistance Reversal Activity Against Human Ovarian Cancer Cells: A Structure-Activity Relationship Study” (J Nat Prod, 2022)
Activity calls are given as the source filed them. The calls are words filed in the database; no cut-off is given here.

Columns and labels:
[1] = target: T1, Sentrin-specific protease 1 (Homo sapiens) (UniProt Q9P0U3); test: Inhibition of recombinant human SENP1 assessed as reduction in deSUMOylation of RanGAP1-SUMO1 at 5 uM using RanGAP1-SUMO1 as substrate preincubated for 10 mins followed by substrate addition and measured after 30 mins relative to control; details: time 40.0 min
T1 sequence (whole entry): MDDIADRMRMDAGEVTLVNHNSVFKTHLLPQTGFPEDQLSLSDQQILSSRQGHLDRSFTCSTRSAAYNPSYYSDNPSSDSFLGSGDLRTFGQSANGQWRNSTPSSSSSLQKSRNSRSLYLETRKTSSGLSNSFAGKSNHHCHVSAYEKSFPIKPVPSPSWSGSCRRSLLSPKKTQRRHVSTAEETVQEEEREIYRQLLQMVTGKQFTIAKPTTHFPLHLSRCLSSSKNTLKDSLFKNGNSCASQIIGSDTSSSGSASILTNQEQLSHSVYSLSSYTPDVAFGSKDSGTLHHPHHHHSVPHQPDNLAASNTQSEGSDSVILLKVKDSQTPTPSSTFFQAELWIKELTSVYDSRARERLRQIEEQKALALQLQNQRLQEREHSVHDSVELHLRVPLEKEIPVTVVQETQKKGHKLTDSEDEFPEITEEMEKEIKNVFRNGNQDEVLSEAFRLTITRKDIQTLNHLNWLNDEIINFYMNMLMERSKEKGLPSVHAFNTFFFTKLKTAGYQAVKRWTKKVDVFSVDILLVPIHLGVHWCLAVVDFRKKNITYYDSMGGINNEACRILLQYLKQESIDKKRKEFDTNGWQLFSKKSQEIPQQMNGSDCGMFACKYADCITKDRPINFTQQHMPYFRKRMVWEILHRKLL

SK-OV-3 [2] = test: Cytotoxicity against human SK-OV-3 cells assessed as reduction in cell viability incubated for 48 hrs by SRB assay; assay type: functional, cell-based; details: SK-OV-3, 48 h
SK-OV-3 [3] = test: Reversal of platinum resistance in cisplatin-resistant human SK-OV-3 cells assessed as reduction in cisplatin IC50 after 48 hrs in presence of cisplatin by SRB assay (reference value: 28.23 microM); assay type: functional, cell-based; details: SK-OV-3, 48 h
[4] = target: T1, Sentrin-specific protease 1 (Homo sapiens); test: (§1) Inhibition of recombinant human SENP1 assessed as reduction in deSUMOylation using RanGAP1-SUMO1 as substrate preincubated for 10 mins followed by substrate addition and measured after 30 mins; details: time 40.0 min, DDE = dose-dependent effect
[5] = target: T2, Sentrin-specific protease 1 (Homo sapiens, UniProt Q9P0U3); test: as §1
T2 sequence (Q9P0U3 whole entry): T1 sequence (whole entry)

[6] = target: T1, Sentrin-specific protease 1 (Homo sapiens); test: Inhibition of SENP1 in human SK-OV-3 cells assessed as increase in SUMOlytated JAK2 level at 5 uM after 48 hrs by immunoprecipitation method; assay type: cell-based
SK-OV-3 [7] = test: Cytotoxicity against human SK-OV-3 cells assessed as cell viability at 500 uM incubated for 48 hrs by SRB assay; assay type: functional; details: read-out: Activity
SK-OV-3 [8] = test: Synergistic reversal of platinum resistance in cisplatin-resistant human SK-OV-3 cells assessed as combination index after 48 hrs in presence of cisplatin by SRB assay; assay type: functional
SK-OV-3 [9] = test: Cytotoxicity against human SK-OV-3 cells assessed as reduction in cell viability at 25 uM incubated for 48 hrs by SRB assay; assay type: functional, cell-based

| inhibition [1] | SMILES | also measured |
| --- | --- | --- |
| 87.6% | C[C@H]1[C@H](C)CC[C@]2(C(=O)O)CC[C@]3(C)C(=CC[C@@H]4[C@@]5(C)CC[C@H](O)C(C)(C)[C@@H]5CC[C@]43C)[C@H]12 |  |
| 65.5% | C[C@@H]1[C@H]2C3=CC[C@@H]4[C@@]5(C)CC[C@@H](O)C(C)(C)[C@@H]5CC[C@@]4(C)[C@]3(C)CC[C@@]2(C)[C@@H](O)C[C@H]1C(=O)O |  |
| 8.4% | C[C@H]1[C@H](C)CC[C@]2(C(=O)O)CC[C@]3(C)C(=CC[C@@H]4[C@@]5(C)CC[C@@H](O)C(C)(C)[C@@H]5CC[C@]43C)[C@H]12 |  |
| 58.4% | C[C@H]1[C@H](C)CC[C@]2(CO)CC[C@]3(C)C(=CC[C@@H]4[C@@]5(C)CC[C@H](O)C(C)(C)[C@@H]5CC[C@]43C)[C@H]12 |  |
| > 100% | C[C@@H]1CC[C@]2(C(=O)O)CC[C@]3(C)C(=CC[C@@H]4[C@@]5(C)CC[C@H](O)C(C)(C)[C@@H]5CC[C@]43C)[C@@H]2[C@]1(C)O [POMOLIC ACID] | inhibition [4]: Dde; IC50 [5]: 5.1 µM; inhibition [6]: Active; IC50 (SK-OV-3 [2]): 51.6 µM; viability at 500 µM (SK-OV-3 [7]): > 25%; IC50 (SK-OV-3 [3]): 3.69 µM; CI (SK-OV-3 [8]): 0.23 |
| 3.9% | C[C@H]1[C@H](C)CC[C@]2(C)CC[C@]3(C)C(=CC[C@@H]4[C@@]5(C)CC[C@@H](O)[C@](C)(C(=O)O)[C@@H]5CC[C@]43C)[C@H]12 |  |
| 69.2% | C[C@@H]1[C@H]2C3=CC[C@@H]4[C@@]5(C)CC[C@H](O)C(C)(C)[C@@H]5CC[C@@]4(C)[C@]3(C)CC[C@@]2(C)CC[C@H]1C(=O)O |  |

Second part, the molecule before the results:

| SMILES | inhibition [1] | also measured |
| --- | --- | --- |
| C=C(C)[C@@H]1CC[C@]2(C)[C@H](CC=C3[C@@H]4[C@@H](C)[C@H](C)CC[C@]4(C)CC[C@]32C)[C@@]1(C)CCC(=O)O | 5.5% |  |
| C[C@@H]1CC[C@]2(C(=O)O)CC[C@]3(C)C(=CC[C@@H]4[C@@]5(C)[C@H](O)C(=O)[C@H](O)C(C)(C)[C@@H]5CC[C@]43C)[C@@H]2[C@]1(C)O | 1.9% |  |
| C[C@@H]1CC[C@]2(C(=O)O)CC[C@]3(C)C(=CC[C@@H]4[C@@]5(C)CC[C@@H](O)[C@](C)(CO)[C@@H]5CC[C@]43C)[C@@H]2[C@]1(C)O | 19.9% |  |
| C[C@H]1[C@H](C)CC[C@]2(C)CC[C@]3(C)C(=CC(=O)[C@@H]4[C@@]5(C)CC[C@@H](O)[C@](C)(C(=O)O)[C@@H]5CC[C@]43C)[C@H]12 | 8.9% |  |
| C[C@@H]1CC[C@]2(C(=O)O)CC[C@]3(C)C(=CC[C@@H]4[C@@]5(C)CC[C@H](O)[C@@](C)(CO)[C@@H]5[C@H](O)C[C@]43C)[C@@H]2[C@]1(C)O | 0.5% |  |
| CC1(C)CC[C@]2(C(=O)O)[C@H](O)C[C@]3(C)C(=CC[C@@H]4[C@@]5(C)CC[C@H](O)C(C)(C)[C@@H]5CC[C@]43C)[C@@H]2C1 |  | IC50 (SK-OV-3 [2]): 96.5 µM; IC50 (SK-OV-3 [3]): 21.5 µM |
| C[C@@H]1CC[C@]2(C(=O)O)CC[C@]3(C)C(=CC[C@@H]4[C@@]5(C)[C@H](O)[C@@H](O)[C@H](O)C(C)(C)[C@@H]5CC[C@]43C)[C@@H]2[C@]1(C)O | 78.4% |  |
| C[C@@H]1CC[C@]2(C(=O)O)CC[C@]3(C)C(=CC[C@@H]4[C@@]5(C)C=C(O)C(=O)C(C)(C)[C@@H]5CC[C@]43C)[C@@H]2[C@]1(C)O | 6% |  |
| C[C@@H]1CC[C@]2(C(=O)O)CC[C@]3(C)C(=CC[C@@H]4[C@@]5(C)C[C@@H](O)[C@@H](O)C(C)(C)[C@@H]5CC[C@]43C)[C@@H]2[C@]1(C)O | 66.6% |  |
| C[C@@H]1CC[C@]2(C(=O)O)CC[C@]3(C)C(=CC[C@@H]4[C@@]5(C)C[C@H](O)[C@H](O)C(C)(C)[C@@H]5CC[C@]43C)[C@@H]2[C@]1(C)O | 1.7% |  |
| C[C@@H]1CC[C@]2(C(=O)O)CC[C@]3(C)C(=CC[C@@H]4[C@@]5(C)CC[C@H](O)C(C)(C)[C@@H]5[C@H](O)C[C@]43C)[C@@H]2[C@]1(C)O | 3.2% |  |
| C[C@@H]1CC[C@]2(C(=O)O)CC[C@]3(C)C(=CC[C@@H]4[C@@]5(C)C[C@@H](O)[C@H](O)C(C)(C)[C@@H]5CC[C@]43C)[C@@H]2[C@]1(C)O [TOMENTIC ACID] | > 100% | inhibition [4]: Dde; IC50 [5]: 4.3 µM; inhibition [6]: Active; IC50 (SK-OV-3 [2]): 23.2 µM; viability at 500 µM (SK-OV-3 [7]): > 25%; IC50 (SK-OV-3 [3]): 2.4 µM; CI (SK-OV-3 [8]): 0.3 |
| C[C@H]1[C@H](C)CC[C@]2(C(=O)O)CC[C@]3(C)C(=CC[C@@H]4[C@@]5(C)C[C@@H](O)[C@H](O)[C@@](C)(CO)[C@@H]5CC[C@]43C)[C@H]12 | 6.6% |  |
| C[C@H]1[C@H](C)CC[C@]2(C(=O)O)CC[C@]3(C)C(=CC[C@@H]4[C@@]5(C)C[C@@H](O)[C@H](O)C(C)(C)[C@@H]5CC[C@]43C)[C@H]12 [COROSOLIC ACID] | 34.4% | Activity (SK-OV-3 [9]): Active; IC50 (SK-OV-3 [2]): 10.5 µM; IC50 (SK-OV-3 [3]): 26.4 µM |
